The results in this text go back to ChEMBL document CHEMBL1165917, “Synthesis and NMDA receptor affinity of fluorinated dioxadrol analogues” (Bioorg Med Chem, 2010).

A short description of assay [1]: Displacement of [3H]-(+)-MK801 from PCP binding site of NMDA receptor from pig brain cortex after 150 mins by scintillation counting. Also noted: species or system Sus scrofa.
Assay [2] concerns the target Sigma non-opioid intracellular receptor 1 (Cavia porcellus, UniProt Q60492). Briefly: Displacement of [3H](+)-pentazocine from sigma1 opioid receptor from guinea pig brain cortex after 150 mins by scintillation counting.
Assay [3] in a line: Displacement of [3H]ditolylguanidine from sigma2 opioid receptor from rat brain cortex after 150 mins by scintillation counting.
The next assay is filed under the species Sus scrofa. To be noted: at 1 µM.
Assay [4] concerns the target Sigma non-opioid intracellular receptor 1 (Cavia porcellus) (UniProt Q60492). To be noted: at 1 µM.
Description: Displacement of [3H](+)-pentazocine from sigma1 opioid receptor from guinea pig brain cortex at 1 uM after 150 mins by scintillation counting
The species named for another assay is Rattus norvegicus. The following applies: at 1 µM.

The structures appear in SMILES notation.

Sequence of Sigma non-opioid intracellular receptor 1 (Cavia porcellus) (Q60492 whole entry): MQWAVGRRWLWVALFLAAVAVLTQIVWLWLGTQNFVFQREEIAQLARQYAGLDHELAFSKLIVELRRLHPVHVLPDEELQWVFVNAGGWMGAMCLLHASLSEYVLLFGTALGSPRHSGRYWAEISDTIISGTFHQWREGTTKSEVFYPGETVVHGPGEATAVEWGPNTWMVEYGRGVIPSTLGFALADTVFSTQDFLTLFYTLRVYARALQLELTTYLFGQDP
Sequence of Sigma non-opioid intracellular receptor 1 (Q60492 whole entry): as above
Description for Sus scrofa: Displacement of [3H]-(+)-MK801 from PCP binding site of NMDA receptor from pig brain cortex at 1 uM after 150 mins by scintillation counting

`FC1(F)CCNC(C2COC(c3ccccc3)(c3ccccc3)O2)C1` (racemic): the Ki in assay [1] came to 81 nM; in assay [2], 810 nM; in assay [3] it was 137 nM. Besides, the inhibition in the assay filed under Sus scrofa stood at 58%; in assay [4] it was 0%; in the assay filed under Rattus norvegicus, 17%.

In the case of `OC1CCNC(C2COC(c3ccccc3)(c3ccccc3)O2)C1` (racemic), the values for the Ki in assay [1] and in assay [2] were 44 nM and 971 nM, respectively. Besides, in the assay filed under Rattus norvegicus, the inhibition came out at 13%.

`O=C1CCNC(C2COC(c3ccccc3)(c3ccccc3)O2)C1` (racemic) returned a Ki in assay [1] of 470 nM. The compound also yielded an inhibition in assay [4] of 0%.

For `FC1CCNC(C2COC(c3ccccc3)(c3ccccc3)O2)C1` (racemic; form 1), the inhibition was 0% in the assay listed under Sus scrofa, 5% in assay [4] and 19% in the assay filed under Rattus norvegicus.

Take `FC1CCNC(C2COC(c3ccccc3)(c3ccccc3)O2)C1` (racemic; form 2) [listing 1 of 2 here]: the Ki in assay [1] was 27 nM.

`FC1CCNC(C2COC(c3ccccc3)(c3ccccc3)O2)C1` (racemic; form 2) [listing 2 of 2 here]: the inhibition in assay [4] came out at 5%; in the assay listed under Rattus norvegicus it was 19%.

Turning to `CC12CC3CC(C)(C1)CC(N)(C3)C2` [MEMANTINE], in assay [1], the Ki was found to be 1200 nM.
